Entries after “also recorded” stand apart in the source; their conditions may differ. Where two headings read alike, the source gives them in different places.
Legend:
[1] = target: T1, Mtb proteasome (Mycobacterium tuberculosis, UniProt P9WHT9); experiment: biochemical; assay type: biochemical; settings: for IC50: 50 µM Suc-LLVY-AMC, 30 min preincubation, 37 °C, triplicate, read-out: IC50 against the Mtb proteasome; for Hill Coefficient: from IC50 curve, Mtb proteasome
T1 construct: made in house
T1 sequence (P9WHT9 whole entry, looked up): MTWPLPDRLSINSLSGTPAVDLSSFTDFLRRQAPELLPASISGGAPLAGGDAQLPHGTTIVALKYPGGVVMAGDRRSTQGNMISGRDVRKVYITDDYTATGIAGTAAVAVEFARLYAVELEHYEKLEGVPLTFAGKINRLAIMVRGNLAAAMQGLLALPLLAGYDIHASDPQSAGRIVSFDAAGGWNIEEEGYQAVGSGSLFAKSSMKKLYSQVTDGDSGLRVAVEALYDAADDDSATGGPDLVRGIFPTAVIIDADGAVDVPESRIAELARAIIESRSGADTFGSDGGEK

[2] = target: T1, Mtb proteasome; experiment: Determination of Ki and type of inhibition (varied substrate concentration, GraphPad Prism model fit); assay type: biochemical; settings: for Ki: best scoring inhibition model; for Type of Inhibition: best ranking model (mixed, competitive, noncompetitive, uncompetitive)
Procedure: The concentrations of 11, 13 and 15 were 0, 0.56, 0.81, 1.15, 1.65, 2.35, 4.80, 9.80 and 20 µM. Further, the concentrations for compound 8 were 0, 1.65, 2.35, 4.80, 9.80 µM and for bortezomib 0, 0.28, 0.40, 0.58, 0.82, 1.18, 2.40, 4.90 and 10 µM. All experiments were performed in triplicate. The resulting data were analyzed using the GraphPad Prism 6 software and were fitted to the software provided models for competitive, noncompetitive, uncompetitive and mixed type enzyme inhibition. The mode of inhibition and Ki values were chosen from the best ranking model, as determined by the software. Representative graphs (Michaelis-Menten, Dixon and Lineweaver-Burk plots) depicting the data fit for the best ranking model of inhibition for all compounds are shown in the Supplementary data (Figures S2–S19).

[3] = target: T1, Mtb proteasome; assay type: biochemical; settings: Mtb proteasome, 100-fold dilution after preincubation
[4] = system: ß5i of IP; settings: cited from earlier work; for RA at 10 µM against ß5i of IP: residual activity of β5i in the presence of 10 μM compound; for IC50: read-out: IC50 against ß5i of IP; for Ki: read-out: Ki against ß5i of IP

Row | Structure (SMILES) | RA at 10 µM against ß5i of IP [4] [%] | RA at 100 µM against Mtb [1] [%] | other results
1 | Cc1c(CCC(=O)NCC#N)c(=O)oc2cc3occ(C(C)(C)C)c3cc12 [Compound 8] | 100 |  | IC50 [1]: 3.7 ± 1.5 µM; Hill Coefficient [1]: 1.05; α (mixed inhibition model) [2]: 0.19; Ki ([2]; Ki): 5.6 µM; Type of Inhibition [2]: mixed type of inhibition; Reversibility of inhibition [3]: reversible inhibitors; also recorded: Reversible inhibition
2 | Cc1c(CCC=O)c(=O)oc2cc3c(cc12)C(c1ccccc1)CO3 (centres unmarked) [Compound 15] |  |  | IC50 [1]: 5.8 ± 2.1 µM; Hill Coefficient [1]: 0.55; α (mixed inhibition model) [2]: 0.22; Type of Inhibition [2]: mixed type of inhibition; Ki ([2]; read-out: Ki): 14.9 µM; Reversibility of inhibition [3]: reversible inhibitors; also recorded: Reversible inhibition
3 | Cc1c(CC(=O)ON2C(=O)CCC2=O)c(=O)oc2cc3occ(C(C)(C)C)c3cc12 [Compound 75] | 53 | 88 | 
4 | Cc1c(C(=O)O)c(=O)oc2cc3occ(-c4ccccc4)c3cc12 [Compound 6] | 82 |  | IC50 [1]: 2.2 ± 0.3 µM; Hill Coefficient [1]: 0.70
5 | Cc1coc2cc3oc(=O)c(CC(=O)N(C)CC#N)c(C)c3cc12 [Compound 54] | 99 | 95 | 
6 | Cc1c(CCC(=O)ON2C(=O)CCC2=O)c(=O)oc2c(C)c3occ(-c4ccccc4)c3cc12 [Compound 79] |  | 100 | IC50 [4]: 3.26 ± 1.49 µM
7 | Cc1cc(-c2coc3cc4oc(=O)c(CCC(=O)O)c(C)c4cc23)c(C)s1 [Compound 21] |  | 99 | Ki [4]: 52.3 ± 18 µM
8 | Cc1c(CC(=O)ON2C(=O)CCC2=O)c(=O)oc2cc3occ(-c4ccccc4)c3cc12 [Compound 73] |  | 79 | IC50 [4]: 6.36 ± 0.61 µM
9 | Cc1coc2cc3oc(=O)c(CCC(=O)ON4C(=O)CCC4=O)c(C)c3cc12 [Compound 71] | 66 | 97 | 
10 | Cc1cc(-c2coc3cc4oc(=O)c(CC(=O)O)c(C)c4cc23)c(C)o1 [Compound 32] |  | 100 | Ki [4]: 351 ± 48 µM
11 | Cc1c(CC(=O)N(C)CC#N)c(=O)oc2cc3occ(-c4ccc(Br)cc4)c3cc12 [Compound 52] | 86 | 70 | 
12 | Cc1c(CCc2nsc(=O)o2)c(=O)oc2cc3occ(-c4ccccc4)c3cc12 [Compound 90] |  | 69 | IC50 [4]: 0.2 ± 0.04 µM
13 | Cc1c(CC(=O)N(C)CC#N)c(=O)oc2cc3occ(-c4ccco4)c3cc12 [Compound 56] | 103 | 53 | 
14 | Cc1c(CC(=O)N(C)CC#N)c(=O)oc2cc3occ(-c4ccccc4)c3cc12 [Compound 51] | 97 | 93 | 
15 | C=CC(=O)Nc1c(C)c2cc3c(-c4ccccc4)coc3cc2oc1=O [Compound 86] |  | 95 | IC50 [4]: 20.5 ± 1.36 µM
16 | Cc1c(CCC(=O)N(C)CC#N)c(=O)oc2cc3occ(C(C)(C)C)c3cc12 [Compound 7] | 100 |  | IC50 [1]: 8 ± 5 µM; Hill Coefficient [1]: 0.42
17 | Cc1coc2cc3oc(=O)c(CCC(=O)N(C)CC#N)c(C)c3cc12 [Compound 42] | 93 | 99 | 
18 | CC=CC(=O)NCc1c(C)c2cc3c(-c4ccccc4)coc3cc2oc1=O [Compound 83] | 116 | 52 | 
19 | Cc1c(CCC(=O)O)c(=O)oc2cc3occ(-c4ccccc4)c3cc12 [Compound 16] |  | 72 | inhibition of the Mtb proteasome [1]: did not inhibit; IC50 [4]: 1.6 µM; Ki [4]: 1.6 ± 0.7 µM
20 | Cc1c(CC(=O)N(C)CC#N)c(=O)oc2cc3occ(C4CCCCC4)c3cc12 [Compound 58] | 101 | 100 | 

Row | Structure (SMILES) | RA at 10 µM against ß5i of IP [4] [%] | RA at 100 µM against Mtb [1] [%] | other results
21 | Cc1c(CCC(=O)ON2C(=O)CCC2=O)c(=O)oc2cc3occ(C(C)(C)C)c3cc12 [Compound 70] | 41 | 70 | 
22 | COc1cccc(-c2coc3cc4oc(=O)c(CCC(=O)O)c(C)c4cc23)c1 [Compound 18] |  | 100 | Ki [4]: 29.6 ± 3.9 µM
23 | Cc1cc(-c2coc3cc4oc(=O)c(CCC(=O)N(C)CC#N)c(C)c4cc23)c(C)s1 [Compound 43] | 107 | 55 | 
24 | Cc1c(CC(=O)O)c(=O)oc2cc3occ(-c4ccco4)c3cc12 [Compound 31] |  | 79 | Ki [4]: 89.3 ± 2 µM
25 | Cc1c(CCC(=O)N(C)CC#N)c(=O)oc2cc3occ(-c4ccccc4)c3cc12 [Compound 40] | 92 | 100 | 
26 | C/C=C/C(=O)Nc1c(C)c2cc3c(-c4ccccc4)coc3cc2oc1=O [Compound 87] | 102 | 93 | 
27 | Cc1c(CCC(=O)N(C)CC#N)c(=O)oc2cc3occ(C4CCCCC4)c3cc12 [Compound 45] | 111 | 92 | 
28 | Cc1c(CC(=O)NCC#N)c(=O)oc2cc3occ(C4CCCCC4)c3cc12 [Compound 65] | 99 | 91 | 
29 | Cc1cc(-c2coc3cc4oc(=O)c(CC(=O)ON5C(=O)CCC5=O)c(C)c4cc23)c(C)o1 [Compound 14] |  |  | IC50 [1]: 9 ± 5 µM; Hill Coefficient [1]: 2.42; IC50 [4]: 6.9 µM
30 | Cc1c(CCC(=O)O)c(=O)oc2cc3occ(-c4ccco4)c3cc12 [Compound 22] |  | 55 | Ki [4]: 116 ± 27 µM
31 | Cc1c(CCC(=O)N(C)CC#N)c(=O)oc2cc3occ(-c4ccco4)c3cc12 [Compound 44] | 86 | 82 | 
32 | Cc1c(CC(=O)NCC#N)c(=O)oc2cc3occ(-c4ccccc4)c3cc12 [Compound 59] | 101 | 92 | 
33 | Cc1c(CCC(=O)NCC#N)c(=O)oc2cc3occ(-c4ccccc4)c3cc12 [Compound 9] | 66 |  | IC50 [1]: 2 ± 2 µM; Hill Coefficient [1]: 2.27
34 | C=CC(=O)NCc1c(C)c2cc3c(-c4ccccc4)coc3cc2oc1=O [Compound 82] | 90 | 68 | 
35 | Cc1c(CCC(=O)N(C)CC#N)c(=O)oc2cc3occ(-c4ccc(Br)cc4)c3cc12 [Compound 41] | 107 | 91 | 
36 | COc1ccc(-c2coc3cc4oc(=O)c(CCC(=O)ON5C(=O)CCC5=O)c(C)c4cc23)cc1 [Compound 68] |  | 93 | IC50 [4]: 0.64 ± 0.13 µM
37 | Cc1c(CCC(=O)O)c(=O)oc2c(C)c3occ(-c4ccc(Cl)cc4)c3cc12 [Compound 38] | 89 | 47 | 
38 | Cc1c(CC(=O)O)c(=O)oc2cc3occ(-c4ccc(Br)cc4)c3cc12 [Compound 4] |  |  | IC50 [1]: 4 ± 3 µM; Hill Coefficient [1]: 1.59; Ki [4]: 12.7 µM
39 | Cc1c(CCC(=O)O)c(=O)oc2cc3occ(-c4ccc(Cl)cc4)c3cc12 [Compound 2] | 83 |  | IC50 [1]: 15 ± 2 µM; Hill Coefficient [1]: 1.75
